Laboratory results taken from patent US8496929B2, “Inotropic effects of antibodies on cardiac contraction” (priority 2002, dated 2013).
Entries after “also recorded” stand apart in the source; their conditions may differ.

Legend:
[1] = target: T1, digitalis-resistant rat (Na++K+)-ATPase (Rattus norvegicus, UniProt P06685); test: (Na++K+)-ATPase activity, digitalis-resistant enzyme; format: biochemical; details: enzyme 100 nM; 24-400 nM test agent; 100 mM Na+, 20 mM K+, 3 mM MgATP
T1 construct: the SL vesicles (4.4 mg/ml) were titrated with 0.58 mg/ml of SDS in the presence of 2 mM ATP; from tissue; host or cells: rat heart muscle; enzyme purified from SL vesicles by SDS titration and sucrose step gradient
Experimental: (§1) Rat cardiac sarcolemmal (SL) vesicles were isolated from rat heart muscle by sucrose flotation method. The vesicles were tested with saponin and were predominately right-side-out in orientation. (Na^++K^+)-ATPase was purified as described previously (Kyte, J. (1971) Biochemistry, 246:4157-4165). Briefly, the SL vesicles (4.4 mg/ml) were titrated with 0.58 mg/ml of SDS in the presence of 2 mM ATP at 20° C. for 30 min. The SDS titrated fractions were then loaded on the top of a sucrose (W/W) step gradient constructed with 10 ml of 37.3% (bottom step), 20 ml of 28.8%, and 10 ml of 15% in a Ti 60 tube, and centrifuged at 40,000 rpm for 90 min. The fractions that contain (Na^++K^+)-ATPase (between 37.3 and 28.8% on the sucrose gradient) were carefully collected and sedimented at 40,000 rpm for 60 minutes. […]
The enzymatic activity was determined as described previously (Kyte J., et al., (1987) Biochemistry, 26:8350-8360) with modifications. […] The color was allowed to develop for 30 min at room temperature and the concentration of phosphate was then determined at 700 nm using a spectrophotometer.
To investigate whether the binding of Jianye affects (Na^++K^+)-ATPase activity, we measured (Na^++K^+)-ATPase (100 nM) activity in the presence of 100 mM Na^+, 20 mM K^+, 3 mM MgATP, and various concentrations of Jianye or ouabain. […]

[2] = target: T2, digitalis-sensitive (Na++K+)-ATPase purified from dog kidney (Canis lupus familiaris, UniProt P50997); test: (Na++K+)-ATPase activity, digitalis-sensitive enzyme; format: biochemical; details: dog enzyme 16 nM; 24-400 nM
T2 construct: Highly purified dog kidney (Na^++K^+)-ATPase was a gift from Dr. Jack Kyte; tissue gift from Dr. Jack Kyte; host or cells: dog kidney
Experimental: The enzymatic activity was determined as described previously (Kyte J., et al., (1987) Biochemistry, 26:8350-8360) with modifications. Briefly, purified rat or dog (Na^++K^+)-ATPase was incubated with or without Jianye or ouabain in the presence of 100 mM Na^+ for 30 min at room temperature. The reaction was initiated by adding 3 mM MgATP and 20 mM K^+ in a final volume of 0.25 ml at 37° C. for 30 min and terminated by adding 0.75 ml quench solution and 0.025 ml developer. The color was allowed to develop for 30 min at room temperature and the concentration of phosphate was then determined at 700 nm using a spectrophotometer.
To investigate whether the binding of Jianye affects (Na^++K^+)-ATPase activity, we measured (Na^++K^+)-ATPase (100 nM) activity in the presence of 100 mM Na^+, 20 mM K^+, 3 mM MgATP, and various concentrations of Jianye or ouabain. […] To exclude the possibility that the inability of Jianye to inhibit enzymatic activity may be due to the digitalis-resistant nature of rat (Na^++K^+)-ATPase (FIG. 3), we tested the effect of Jianye on the digitalis-sensitive (Na^++K^+)-ATPase (16 nM) purified from dog kidney.

[3] = system: (Na++K+)-ATPase; test: [3H]ouabain binding to cardiac sarcolemmal vesicles; set-up: species or system rat; details: PB added to Jianye prior to [3H]ouabain
Experimental: as §1, with “minutes. The purified enzyme was resuspended in a sucrose (250 mM)/histidinium chloride (30 mM) buffer, pH 7.2, quick-frozen in liquid nitrogen and stored at −70° C.” for “minutes.”
Cardiac SL vesicles (3 mg/ml) were incubated with or without various concentrations of Jianye antibody for 30 minutes at room temperature in a medium containing 1 mM MgATP, 100 mM NaCl, and 10 mM Tris/HCl buffer (ph 7.4). […] An aliquot (20 or 50 Ml) was taken from each sample and radioactivity determined using a β-scintillation counter. The percent of [^3H]ouabain binding to the enzyme was then calculated. […]

[4] = system: rat ventricular myocytes; test: Cell contraction and confocal Ca2+ transients in single ventricular myocytes; format: cell-based; details: PB (PB95, 20 μM) mixed with Jianye prior to administration
Experimental: Ventricular cardiac myocytes were isolated from adult Sprague-Dawley rats (2-3 months old; weight 225-300 g) using standard enzymatic techniques. Briefly, following anesthesia (sodium pentobarbital, 100 mg/kg), the heart was quickly removed from the chest and aortic perfused at constant pressure (100 cmH2O) at 37° C. for 3 minutes with a Ca^2+-free bicarbonate-based buffer containing 120 mM NaCl, 5.4 mM MgSO4, 1.2 mM NaH2PO4, 5.6 mM glucose, 20mM NaHCO3, and 5 mM taurine, in the presence of O2 (95%)-CO2 (5%). The enzymatic digestion was initiated by adding collagenase (Worthington Type II, 1 mg/ml) to the perfusion solution. Calcium (50 μM) was added to the enzyme solution when the heart became swollen. […]
Myocytes were placed on an inverted microscope (Zeiss model IM-35), superfused with HEPES-buffered solution at a flow rate of 1.8 ml/min, and electrically stimulated at 0.5 Hz at 23° C. Cell length was monitored from the bright field image (650 nm to 750 nm red light illumination) by an optical edge-tracking method using a photodiode array (model 1024 SAQ, Reticon) with a 3 ms time resolution. The contraction amplitude was measured as the percentage of shortening of cell length. […]
We next determined whether the binding of Jianye to the (Na^++K^+)-ATPase affects cardiac contractility. […]

Compound	inhibition of rat (Na++K+)-ATPase activity [1]	effect on dog (Na++K+)-ATPase enzymatic activity [2]	inhibition of ATP hydrolysis [2]	[3H]ouabain labeling when Jianye is saturated by peptide blocker (effect on Jianye antagonism) [3]	blocking of Jianye-induced increases in Ca2+ transients and contraction [4]	blocking of Jianye-induced increases in Ca2+ transients and contraction ([4]; listed as PB95)
C[C@@H]1O[C@@H](O[C@H]2C[C@@H](O)[C@]3(CO)[C@H]4[C@H](O)C[C@]5(C)[C@@H](C6=CC(=O)OC6)CC[C@]5(O)[C@@H]4CC[C@]3(O)C2)[C@H](O)[C@H](O)[C@H]1O [ouabain]	did not inactivate	reduced the enzymatic activity	up to 47%	–	–	–
KRQPRNPKTDKLVNE [PB]	–	–	–	not affected; also recorded: eliminated this antagonist effect	largely abolished; also recorded: completely abolished	largely impeded
